In PubChem BioAssay (NCI) one finds GI50 and TGI data, which are given here for eight compounds.

Among the test systems are SW-620 colon; MALME-3M melanoma; 786-0 renal; MCF7 breast; DU-145 prostate; SNB-75 CNS; U251 CNS; NCI/ADR-RES ovarian; HS 578T breast; SK-MEL-5 melanoma.
Experiment in all cases: NCI anticancer screen, dose series, 48 h

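Five concentrations, 48 hours, 96-well plates. GI50 = concentration required for 50% inhibition of growth. Definition used: TGI = concentration required for complete inhibition of growth.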

For the compound `COc1ccc(-c2nn3ncccc3c2-c2ccnc(Nc3ccc(F)c(F)c3)n2)cc1`, the GI50 in the test with SW-620 colon is 17 µM; in the test with MALME-3M melanoma, 11.3 µM; in the test on 786-0 renal, 11.1 µM; with MCF7 breast, 10.6 µM; in the test with DU-145 prostate, 15.8 µM; in the test on SNB-75 CNS it was 8.49 µM. The GI50 in the test on U251 CNS was 10.3 µM; in the test with NCI/ADR-RES ovarian, 8.27 µM; with HS 578T breast, 9.2 µM; in the test on SK-MEL-5 melanoma it was 8.08 µM. Also, the TGI in the test with SW-620 colon, with MALME-3M melanoma, in the test with 786-0 renal, in the test with MCF7 breast, in the test on DU-145 prostate and in the test with SNB-75 CNS was over 25 µM throughout. The TGI in the test with U251 CNS, in the test with NCI/ADR-RES ovarian, in the test on HS 578T breast and in the test with SK-MEL-5 melanoma was over 25 µM throughout.
As for `COc1cc2c(cc1OCCCCCOc1ccc(-c3nc4ccccc4s3)cc1)N=C[C@@H]1CCCN1C2=O`, the GI50 with SW-620 colon was 3.01 µM; with MALME-3M melanoma, 12.5 µM; in the test on 786-0 renal it was 1.2 µM; in the test on MCF7 breast, 1.21 µM; in the test on DU-145 prostate it was 2.08 µM; with SNB-75 CNS, 6.57 µM. Also, the GI50 with U251 CNS was 1.47 µM; with NCI/ADR-RES ovarian, 2.55 µM; with HS 578T breast, 2.02 µM; with SK-MEL-5 melanoma, 0.934 µM. The TGI was over 28.6 µM in the test with SW-620 colon; 37.9 µM with MALME-3M melanoma; 3.63 µM in the test with 786-0 renal; 9.77 µM with MCF7 breast; 13 µM in the test with DU-145 prostate; 59.8 µM in the test with SNB-75 CNS. The TGI in the test on U251 CNS was found to be 16.1 µM; in the test on NCI/ADR-RES ovarian it was 15.6 µM; with HS 578T breast, 7.68 µM; in the test on SK-MEL-5 melanoma it was 3.88 µM.
For the compound `O=c1oc2ccccc2cc1P(=O)(O)O`, the TGI in the test with SW-620 colon, with MALME-3M melanoma, with 786-0 renal, in the test on MCF7 breast, in the test with DU-145 prostate and with SNB-75 CNS was over 100 µM each time. Further, the TGI in the test on U251 CNS, in the test with NCI/ADR-RES ovarian, in the test on HS 578T breast and with SK-MEL-5 melanoma was over 100 µM throughout.
With `[Cu].c1ccc2c(c1)C1=NC2=NC2=NC(=NC3=NC(=NC4=NC(=N1)c1ccccc14)c1ccccc13)c1ccccc12`, the GI50 in the test on SW-620 colon, in the test on MALME-3M melanoma, in the test with 786-0 renal, in the test with MCF7 breast, with DU-145 prostate and in the test on SNB-75 CNS was over 100 µM each time. In addition, the GI50 in the test with U251 CNS, in the test on NCI/ADR-RES ovarian, in the test with HS 578T breast and in the test with SK-MEL-5 melanoma was over 100 µM each time. The TGI in the test with SW-620 colon, with MALME-3M melanoma, in the test with 786-0 renal, in the test with MCF7 breast, in the test on DU-145 prostate and in the test on SNB-75 CNS was over 100 µM each time. For the same compound, the TGI in the test with U251 CNS, with NCI/ADR-RES ovarian, in the test on HS 578T breast and in the test on SK-MEL-5 melanoma was over 100 µM in each case.
As to `Clc1ccc(NCNC2Nc3ccccc3N2)cc1Cl`, the TGI with SW-620 colon was over 100 µM; in the test on MALME-3M melanoma, over 100 µM; in the test with 786-0 renal it was over 100 µM; in the test with MCF7 breast, 29.1 µM; in the test on DU-145 prostate it was over 100 µM; in the test with SNB-75 CNS it was over 100 µM. Also, the TGI was over 100 µM in the test on U251 CNS, over 100 µM in the test on NCI/ADR-RES ovarian, over 100 µM with HS 578T breast and 54.6 µM in the test on SK-MEL-5 melanoma.
As to `CC(C)(C)CNCCO`, the TGI in the test on SW-620 colon, with MALME-3M melanoma, in the test with 786-0 renal, in the test on MCF7 breast, in the test with DU-145 prostate and with SNB-75 CNS was over 100 µM throughout. The TGI with U251 CNS, in the test with NCI/ADR-RES ovarian, with HS 578T breast and in the test on SK-MEL-5 melanoma was over 100 µM each time.
As to `CCCCCCCCCCCC1=NC(C)(C)CN1C(C)C`, the GI50 in the test with SW-620 colon is 1.85 µM; in the test on MALME-3M melanoma, 1.92 µM; in the test on 786-0 renal, 3.57 µM; in the test on MCF7 breast, 2.81 µM; in the test with DU-145 prostate it was 5.46 µM; in the test on SNB-75 CNS it was 6.04 µM. Besides, the GI50 was 3.4 µM in the test on U251 CNS, 3.63 µM in the test on NCI/ADR-RES ovarian, 2.81 µM in the test on HS 578T breast and 2.05 µM with SK-MEL-5 melanoma. Further, the TGI in the test with SW-620 colon stood at 3.87 µM; in the test on MALME-3M melanoma, 4.32 µM; in the test on 786-0 renal, 13 µM; with MCF7 breast, 8.68 µM; with DU-145 prostate it was 17.9 µM; in the test with SNB-75 CNS it was 19.2 µM. For the same compound, the TGI in the test on U251 CNS was 12.8 µM; in the test with NCI/ADR-RES ovarian, 13.4 µM; with HS 578T breast it was 13.1 µM; in the test with SK-MEL-5 melanoma, 4.34 µM.
For `CC(C)CC(NC(=O)C(O)C(N)Cc1ccccc1)C(=O)O` (stereo not given), the TGI in the test on SW-620 colon, with MALME-3M melanoma, with 786-0 renal, in the test on MCF7 breast, in the test on DU-145 prostate and with SNB-75 CNS was over 100 µM each time. Also, the TGI in the test with U251 CNS, with NCI/ADR-RES ovarian, in the test with HS 578T breast and in the test with SK-MEL-5 melanoma was over 100 µM throughout.
